Data on 1 compound can be found in patent US8999389B2, “Bioresorbable controlled-release composition” (priority 2006, dated 2015).

The data set is described as follows: Intravenous bolus dosing of 2-hydroxyflutamide in dogs, plasma concentration. Format: in vivo, Labrador dogs. As to conditions: single intravenous bolus 25 mg. The protocol:
First, an animal study was performed with 4 sexually mature Labrador dogs, aged 1 year, under approval by the Animal Ethics Committee of University of Gothenburg.
The male dogs (Labrador) were first given an intravenous single bolus dose of 2-hydroxyflutamide or 25 mg (10 ml solution) per animal during 30 seconds. The composition of the intravenous solution was sterile saline 54%, sterile polyethyleneglycol 400, 46% and 6% ethanol (95%).
After injection into vena jugularis, blood samples were taken at predetermined time points during 10 hours.

`CC(C)(O)C(=O)Nc1ccc([N+](=O)[O-])c(C(F)(F)F)c1` [2-hydroxyflutamide]: the “time after which plasma concentration was below the detection limit” value is reported as “about 10 hrs”.
